Measurements: PubChem BioAssay (NCI)
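Each compound was tested at five concentrations against cells in 96-well plates for 48 hours. TGI: concentration producing complete growth inhibition.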

Key:
Experiment in all cases: growth of human tumour cells (NCI), 48 h
NCI-H460 lung = test system: NCI-H460 lung
SK-OV-3 ovarian = test system: SK-OV-3 ovarian
OVCAR-3 ovarian = test system: OVCAR-3 ovarian
HCC-2998 colon = test system: HCC-2998 colon
M19-MEL melanoma = test system: M19-MEL melanoma
UACC-62 melanoma = test system: UACC-62 melanoma
CAKI-1 renal = test system: CAKI-1 renal
LOX IMVI melanoma = test system: LOX IMVI melanoma
LXFL 529 NSCLC = test system: LXFL 529 NSCLC
SK-MEL-28 melanoma = test system: SK-MEL-28 melanoma
DMS 114 small cell lung = test system: DMS 114 small cell lung
HOP-62 NSCLC = test system: HOP-62 NSCLC
SNB-19 CNS = test system: SNB-19 CNS
SF-268 CNS = test system: SF-268 CNS
HCT-15 colon = test system: HCT-15 colon
SN12C renal = test system: SN12C renal
HOP-92 NSCLC = test system: HOP-92 NSCLC
SK-MEL-2 melanoma = test system: SK-MEL-2 melanoma
NCI-H522 lung = test system: NCI-H522 lung
DLD-1 colon = test system: DLD-1 colon
OVCAR-8 ovarian = test system: OVCAR-8 ovarian
ACHN renal = test system: ACHN renal
RXF-631 renal = test system: RXF-631 renal
M14 melanoma = test system: M14 melanoma
HT29 colon = test system: HT29 colon
KM12 colon = test system: KM12 colon
A549 NSCLC = test system: A549 NSCLC
PC-3 prostate = test system: PC-3 prostate
A498 renal = test system: A498 renal
SW-620 colon = test system: SW-620 colon
NCI-H226 lung = test system: NCI-H226 lung
786-0 renal = test system: 786-0 renal
T-47D breast = test system: T-47D breast
HS 578T breast = test system: HS 578T breast
MOLT-4 leukemia = test system: MOLT-4 leukemia
SNB-75 CNS = test system: SNB-75 CNS
SK-MEL-5 melanoma = test system: SK-MEL-5 melanoma
UACC-257 melanoma = test system: UACC-257 melanoma
HCT-116 colon = test system: HCT-116 colon
SF-539 CNS = test system: SF-539 CNS
K-562 leukemia = test system: K-562 leukemia
BT-549 breast = test system: BT-549 breast
XF 498 CNS = test system: XF 498 CNS
UO-31 renal = test system: UO-31 renal
IGROV1 ovarian = test system: IGROV1 ovarian
SR leukemia = test system: SR leukemia
OVCAR-4 ovarian = test system: OVCAR-4 ovarian
RPMI-8226 leukemia = test system: RPMI-8226 leukemia
MDA-N = test system: MDA-N
SF-295 CNS = test system: SF-295 CNS
OVCAR-5 ovarian = test system: OVCAR-5 ovarian
MDA-MB-435 = test system: MDA-MB-435
NCI/ADR-RES ovarian = test system: NCI/ADR-RES ovarian
EKVX NSCLC = test system: EKVX NSCLC
HL-60(TB) leukemia = test system: HL-60(TB) leukemia
KM20L2 colon = test system: KM20L2 colon
MDA-MB-231 breast = test system: MDA-MB-231 breast
MCF7 breast = test system: MCF7 breast
U251 CNS = test system: U251 CNS
NCI-H23 lung = test system: NCI-H23 lung
MALME-3M melanoma = test system: MALME-3M melanoma
COLO 205 colon = test system: COLO 205 colon
RXF 393 renal = test system: RXF 393 renal
TK-10 renal = test system: TK-10 renal
DU-145 prostate = test system: DU-145 prostate
HOP-18 NSCLC = test system: HOP-18 NSCLC
DMS 273 small cell lung = test system: DMS 273 small cell lung
CCRF-CEM leukemia = test system: CCRF-CEM leukemia
SNB-78 CNS = test system: SNB-78 CNS

Measured: TGI

O=c1oc2ccccc2c(O)c1C(C/C(CCN1CCCC1)=N/O)c1ccccc1 (stereo not drawn)
> 31.6 µM: K-562 leukemia | HL-60(TB) leukemia
not listed: HOP-18 NSCLC | DMS 273 small cell lung | CCRF-CEM leukemia | SNB-78 CNS
> 100 µM: all other assays above

C#CCN(Cc1ccc2nc(-c3ccccc3)c(Cl)nc2c1)c1cc(OC)c(OC)c(OC)c1
51.8 µM: DMS 114 small cell lung
43.5 µM: RPMI-8226 leukemia
34.2 µM: SW-620 colon
40.4 µM: LOX IMVI melanoma
not listed: PC-3 prostate | T-47D breast | HS 578T breast | BT-549 breast | XF 498 CNS | SR leukemia | MDA-N | MDA-MB-435 | NCI/ADR-RES ovarian | MDA-MB-231 breast | MCF7 breast | DU-145 prostate
> 100 µM: all other assays above

NC(CCCNCc1ccccc1)C(=O)O (stereo not drawn)
not listed: HCC-2998 colon | PC-3 prostate | T-47D breast | HS 578T breast | BT-549 breast | XF 498 CNS | SR leukemia | MDA-N | SF-295 CNS | OVCAR-5 ovarian | MDA-MB-435 | NCI/ADR-RES ovarian | MDA-MB-231 breast | MCF7 breast | U251 CNS | RXF 393 renal | DU-145 prostate | SNB-78 CNS
> 100 µM: all other assays above

CCC1(CN(C)C)CC/C(=C\c2ccc(OC)cc2)C1=O (stereo not drawn)
not listed: SK-OV-3 ovarian | PC-3 prostate | T-47D breast | HS 578T breast | BT-549 breast | XF 498 CNS | SR leukemia | MDA-N | MDA-MB-435 | NCI/ADR-RES ovarian | HL-60(TB) leukemia | MDA-MB-231 breast | MCF7 breast | DU-145 prostate
> 100 µM: all other assays above
